One series concerns the target Cathepsin B (Homo sapiens, UniProt P07858). The series can be described thus: Cathepsin B cleavage of linkers. The class given is biochemical. The note with it: Cathepsin B buffer pH 5.5, 37° C. How it is done:
The following procedure was used for testing the cathepsin B cleavage of linkers.
7.5 μL of test compound (0.5 mM in DMSO) was transferred to individual tube containing 135 μl of Cathepsin B buffer (25 mM Sodium Acetate, 1 mM EDTA, 1 mM DTT, pH 5.5) and the digestion was started by the addition of 7.5 μl of the diluted Cathepsin B enzyme (Activated, 1.45 μM, 0.1 units). The samples were incubated at 37° C. for 24 h. After 24 h, a 20 μL aliquot was taken and quenched with 80 μL of 75:25:0.1 MeOH:acetonitrile:formic acid. Negative control was also included, without the addition of Cathepsin B. A control compound (structure below) was digested similarly and included as positive control. After quenching, all samples were held at −20° C. for 1 h and further centrifuged at 14,000 rpm for 5 min. The supernatant was transferred to a fresh tube and put in an UPLC autosampler for analysis, per the procedure of the preceding example.
In the above structure, “Tub” denotes a tubulysin analog (Cheng et al., U.S. Pat. No. 8,394,922 B2 (2013). The valine-citrulline (Val-Cit) dipeptide is a known substrate for cathepsin B.

A short description of series [1]: Blood serum stability in mouse serum. The class given is in vitro ADME. The procedure: (§1) The samples were incubated at 37° C. for 0, 1, 2, 4, and 24 hours. After each of the time points, an aliquot of 20 μl was taken from the samples and quenched with 60 μl of 75:25:0.1 MeOH:acetonitrile:formic acid. After quenching, all samples were held at −20° C. for 1 hour and further centrifuged at 14000 rpm for 15 mins. The supernatant was transferred to a fresh vial and stored at −20° C. until analysis. Samples were analyzed using LC-MS/MS on Agilent 6530 Q-TOF mass spectrometer connected to an Agilent 1290 UPLC. 3 μL of samples were injected onto a Waters BEH C18 Column (2.1×50 mm, 1.7 μm) maintained at 60° C. […] The total run time is 9.5 min.

A short description of series [2]: Blood serum stability in human serum. The class given is in vitro ADME. The settings on record: 37° C. The procedure:
as §1

SMILES strings stand for the structures.

Regarding `CCCCOc1nc(N)c2nc(O)n(Cc3ccc(CN(CCCC)C(=O)OCc4ccc(NC(=O)[C@H](CCCNC(N)=O)NC(=O)[C@@H](NC(=O)[C@H](CCC(=O)O)NC(=O)CCCCCN5C(=O)C=CC5=O)C(C)C)cc4)cc3)c2n1` [Compound B], the “Cathepsin B Cleavage (% cleaved after 24 hours)” value on Cathepsin B is 100 % cleaved. In series [1] (mouse serum, 37° C., 24 hours), the “Stability in Mouse Serum (% cleaved after 24 hours)” value amounted to 50 % cleaved. Also, in series [1] (text summary of Table C), the “Stability in mouse serum (in words)” value is recorded as “unstable in mouse serum”. Also, the “Stability in Human Serum (% cleaved after 24 hours)” value in series [2] stood at 0 % cleaved.
